Patent US4673670A, “N^6 -acenaphthyl adenosines and analogs thereof” (Warner-Lambert Company, priority 1986, dated 1987)

Test system: conscious rat
Test: Antihypertensive evaluation (AHP3): aortic blood pressure and heart rate from conscious rats
Type: in vivo
Settings: hour 1
Source text: This test procedure is described in the following paragraphs.
A Method for the Direct Monitoring of Aortic Blood Pressure and Heart Rate from Conscious Rats
The continuous monitoring of pulsatile blood pressure (BP) from unrestrained conscious rats surgically equipped with polyethylene cannulas was accomplished by means of a computer assisted data capture scheme (CADCS). The basic elements of the methodology are the cannulation procedure and the CADCS.
Cannulation Procedure: Rats were anesthetized with Telazol (1:1 tiletamine HCl and zolazepam HCl); 20-40 mg/kg IM and the descending aorta exposed via a midline incision. Cannulas fabricated from polyethylene tubing were inserted into the aorta via an undersized puncture hole below the renal arteries. The puncture hole was made by a 23 G disposable needle with a section of the aorta clamped off above and below the puncture site. The cannulas, consisting of a PE100 (0.86 mm ID) body and a PE50 (0.58 mm ID) tip, were attached to a trocar, inserted through the psoas muscle, and passed subcutaneously along the midline of the back and externalized between the ears. […]
CADCS: The pulsatile blood pressure and heart rate of each of 32 rats was monitored every minute by means of two in-laboratory microcomputers communicating directly with a data concentrator computer. […]

| SMILES | MAP (mean arterial pressure) decrease (30 mg/kg, ↓ = decrease) | HR (heart rate) increase (10 mg/kg, ↑ = increase) |
| --- | --- | --- |
| OC[C@H]1O[C@@H](n2cnc3c(NC4Cc5cccc6cccc4c56)ncnc32)[C@H](O)[C@@H]1O (some centres unmarked) [Example 1, N^6 -Acenaphthyladenosine] | 30% |  |
| OC[C@H]1O[C@@H](n2cnc3c(NCC4=Cc5cccc6cccc4c56)ncnc32)[C@H](O)[C@@H]1O [Example 2, N^6-(1-acenaphthylenylmethyl)adenosine] |  | 0% |
